Legend:
AGS = assay: Antiproliferative activity against human AGS cells harboring […] assessed as inhibition of cell growth incubated for 5 days by crystal violet staining analysis; assay type: functional, cell-based
GTPase KRas [1] = target: T1, GTPase KRas (Homo sapiens, UniProt P01116); assay: Inhibition of recombinant human GTP-bound KRAS wild type (1 to 169 residues) incubated for 1 hr by HTRF assay
NCI-H1299 = assay: Antiproliferative activity against human NCI-H1299 cells harboring KRAS wild type assessed as inhibition of cell growth incubated for 5 days by crystal violet staining analysis; assay type: functional, cell-based; conditions: NCI-H1299, 120 h
ASPC1 = assay: Antiproliferative activity against human ASPC1 cells harboring […] assessed as inhibition of cell growth incubated for 5 days by crystal violet staining analysis; assay type: functional, cell-based
[2] = Inhibition of recombinant human His6-tagged KRAS4B G12D mutant incubated for 1 hr by HTRF assay
A549 = assay: Antiproliferative activity against human A549 cells harboring […] assessed as inhibition of cell growth incubated for 5 days by crystal violet staining analysis; assay type: functional, cell-based
GTPase KRas [3] = target: T1, GTPase KRas; assay: Inhibition of KRAS in human AGS cells assessed as downregulation of ERK phosphorylation incubated for 3 hrs by immunoblotting analysis; assay type: cell-based; conditions: tested as the 2H-labelled form
GTPase KRas [4] = target: T1, GTPase KRas; assay: Inhibition of KRAS in human AGS cells assessed as downregulation of AKT phosphorylation incubated for 3 hrs by immunoblotting analysis; assay type: cell-based; conditions: tested as the 2H-labelled form
GTPase KRas [5] = target: T1, GTPase KRas; assay: Inhibition of KRAS in human ASPC1 cells assessed as downregulation of AKT phosphorylation incubated for 3 hrs by immunoblotting analysis; assay type: cell-based; conditions: tested as the 2H-labelled form
GTPase KRas [6] = target: T1, GTPase KRas; assay: Inhibition of KRAS in human ASPC1 cells assessed as downregulation of ERK phosphorylation incubated for 3 hrs by immunoblotting analysis; assay type: cell-based; conditions: tested as the 2H-labelled form
[7] = Clearance in Sprague-Dawley rat at 1 mg/kg,iv measured upto 24 hrs by LC-MS/MS analysis; assay type: ADME, organism-based; conditions: in vivo
[8] = AUC in Sprague-Dawley rat at 1 mg/kg,iv measured upto 24 hrs by LC-MS/MS analysis; assay type: ADME, organism-based; parameters: dose 1 mg/kg, time < 24 hrs, route iv; conditions: in vivo
[9] = Half life in Sprague-Dawley rat at 1 mg/kg,iv measured upto 24 hrs by LC-MS/MS analysis; assay type: ADME, organism-based; conditions: in vivo

| IC50 (AGS; Homo sapiens, AGS, 120 h) [nM] | IC50 (NCI-H1299) [nM] | IC50 (ASPC1; Homo sapiens, ASPC1, 120 h) [nM] | IC50 (A549; Homo sapiens, A549, 120 h) [nM] | SMILES | also measured |
| --- | --- | --- | --- | --- | --- |
| 22.5 | 1410 | 23.7 | 1090 | [2H]C([2H])(Oc1nc(N2C[C@H]3CC[C@@H](C2)N3)c2cnc(-c3cccc4ccc(F)c(C#C)c34)c(F)c2n1)C12CCCN1CC(=C(F)F)C2 (some centres not stated) | IC50 (GTPase KRas [1]): 20.3 nM; IC50 [2]: 2.21 nM |
| > 50 | > 5000 | > 50 | > 5000 | C#Cc1c(F)ccc2cc(O)cc(-c3ncc4c(N5C[C@H]6CC[C@@H](C5)N6)nc(OC[C@]56CCCN5[C@@H](Cn5cc(CCC#N)nn5)CC6)nc4c3F)c12 (racemic) | – |
| – | – | – | – | C#Cc1c(F)ccc2cccc(-c3ncc4c(N5C[C@H]6CC[C@@H](C5)N6)nc(OCC56CCCN5CC(=C(F)F)C6)nc4c3F)c12 (some centres not stated) | inhibition (GTPase KRas [3]): Dose-Dependent Effect; inhibition (GTPase KRas [4]): Dose-Dependent Effect; inhibition (GTPase KRas [5]): Dose-Dependent Effect; inhibition (GTPase KRas [6]): Dose-Dependent Effect |
| > 50 | > 5000 | > 50 | > 5000 | C#Cc1c(F)ccc2cc(O)cc(-c3ncc4c(N5C[C@H]6CC[C@@H](C5)N6)nc(OC[C@]56CCCN5[C@@H](Cn5cc(COCCOC)nn5)CC6)nc4c3F)c12 (racemic) | – |
| > 50 | > 5000 | > 50 | > 5000 | [2H]C([2H])(Oc1nc(N[C@H]2CCCC[C@@H]2N(C)C)c2cnc(-c3cc(O)cc4ccc(F)c(C#C)c34)c(F)c2n1)C12CCCN1CC(=C(F)F)C2 (some centres not stated) | – |
| > 50 | > 5000 | > 50 | > 5000 | [2H]C([2H])(Oc1nc(NCC23CCCN2CCC3)c2cnc(-c3cc(O)cc4ccc(F)c(C#C)c34)c(F)c2n1)C12CCCN1CC(=C(F)F)C2 (configuration not stated) | – |
| > 50 | > 5000 | > 50 | > 5000 | C#Cc1c(F)ccc2cc(O)cc(-c3ncc4c(N5C[C@H]6CC[C@@H](C5)N6)nc(OC[C@H]5CC6CCN5C[C@@H]6C=C)nc4c3F)c12 | – |
| 0.6 | 1930 | 1.1 | 960 | [2H]C([2H])(Oc1nc(N2C[C@H]3CC[C@@H](C2)N3)c2cnc(-c3cc(O)cc4ccc(F)c(C#C)c34)c(F)c2n1)C12CC(=C)CN1CC(=C(F)F)C2 (some centres not stated) | – |
| 12 | > 5000 | 28.4 | 700 | [2H]C([2H])(Oc1nc(NCC2(N(C)C)CCC2)c2cnc(-c3cc(N)cc4ccc(F)c(C#C)c34)c(F)c2n1)C12CCCN1CC(=C(F)F)C2 (configuration not stated) | clearance [7]: 81.1 mL/min/kg; AUC at 24 h [8]: 218 ng·h/mL; half-life [9]: 9.42 h |
| 12.6 | > 5000 | 42.2 | > 5000 | C#Cc1c(F)ccc2cc(O)cc(-c3ncc4c(N5C[C@H]6CC[C@@H](C5)N6)nc(OC[C@]56CCCN5[C@@H](COC(=O)NCC57C[C@H]8C[C@@H](C5)C[C@@H](C7)C8)CC6)nc4c3F)c12 (mixture of isomers) | – |
| > 50 | > 5000 | > 50 | > 5000 | [2H]C([2H])(Oc1nc(N2C[C@H]3CC[C@@H](C2)N3C)c2cnc(-c3cc(O)cc4ccc(F)c(C#C)c34)c(F)c2n1)C12CCCN1CC(=C(F)F)C2 (some centres not stated) | – |
| > 50 | > 5000 | > 50 | > 5000 | [2H]C([2H])(Oc1nc(N2CCC(N(C)C)C2)c2cnc(-c3cc(O)cc4ccc(F)c(C#C)c34)c(F)c2n1)C12CCCN1CC(=C(F)F)C2 (configuration not stated) | – |
| – | > 5000 | – | – | C#CCN(C)C(=O)OC[C@H]1CC[C@@]2(COc3nc(N4C[C@H]5CC[C@@H](C4)N5)c4cnc(-c5cc(O)cc6ccc(F)c(C#C)c56)c(F)c4n3)CCCN12 (racemic) | IC50 (AGS; ags): 25.5 nM; IC50 (ASPC1; aspc1): 39.4 nM; IC50 (A549; a549): 1760 nM |
| > 50 | > 5000 | > 50 | > 5000 | C#Cc1c(F)ccc2cc(O)cc(-c3ncc4c(N5C[C@H]6CC[C@@H](C5)N6)nc(OC[C@]56CCCN5[C@@H](Cn5cc(C(C)(C)O)nn5)CC6)nc4c3F)c12 (racemic) | – |
| – | – | – | – | C#CCN(C)C(=O)OC[C@H]1CC[C@@]2(COc3nc(N4C[C@H]5CC[C@@H](C4)N5)c4cnc(-c5cc(O)cc6ccc(F)c(C#C)c56)c(F)c4n3)CCCN12 | IC50 (AGS; ags): 59.3 nM; IC50 (ASPC1; aspc1): 207 nM; IC50 (A549; a549): > 5000 nM |
| > 50 | > 5000 | > 50 | > 5000 | [2H]C([2H])(Oc1nc(N2C[C@H]3CC[C@@H](C2)N3)c2cnc(-c3cccc4c(F)cc(F)c(C#C)c34)c(F)c2n1)C12CCCN1CC(=C(F)F)C2 (some centres not stated) | – |
| > 50 | > 5000 | > 50 | > 5000 | C#Cc1c(F)ccc2cc(O)cc(-c3ncc4c(N5C[C@H]6CC[C@@H](C5)N6)nc(OC[C@]56CCCN5[C@@H](COC(=O)N5CCS(=O)(=O)CC5)CC6)nc4c3F)c12 (racemic) | – |
| > 50 | > 5000 | > 50 | 4500 | C#Cc1c(F)ccc2cc(O)cc(-c3ncc4c(N5C[C@H]6CC[C@@H](C5)N6)nc(OC(C)C56CCCN5CC(=C)C6)nc4c3F)c12 (some centres not stated) | – |
| > 50 | > 5000 | > 50 | > 5000 | C#Cc1c(F)ccc2cc(O)cc(-c3ncc4c(N5C[C@H]6CC[C@@H](C5)N6)nc(NCCCn5cc(COCC67CCCN6CC(=C)C7)nn5)nc4c3F)c12 (some centres not stated) | – |
| > 50 | > 5000 | > 50 | > 5000 | [2H]C([2H])(Oc1nc(N2C[C@H]3CC[C@@H](C2)N3)c2cnc(-c3cccc4cc(F)c(F)c(C#C)c34)c(F)c2n1)C12CCCN1CC(=C(F)F)C2 (some centres not stated) | – |
| 1.2 | 2500 | 2 | 2180 | [2H]C([2H])(Oc1nc(N2C[C@H]3CC[C@@H](C2)N3)c2cnc(-c3cc(N)cc4cccc(C#C)c34)c(F)c2n1)C12CCCN1CC(=C(F)F)C2 (some centres not stated) | – |
| > 50 | > 5000 | > 50 | > 5000 | C#Cc1c(F)ccc2cc(O)cc(-c3ncc4c(N5C[C@H]6CC[C@@H](C5)N6)nc(N5C[C@@H]6C[C@H](C5)c5cccc(=O)n5C6)nc4c3F)c12 | – |
| > 50 | > 5000 | > 50 | > 5000 | [2H]C([2H])(Oc1nc(N2C[C@H]3CC[C@@H](C2)N3)c2cnc(-c3c(Cl)c(C)cc4[nH]ncc34)c(F)c2n1)C12CCCN1CC(=C(F)F)C2 (some centres not stated) | – |
| 15.4 | > 5000 | 23.9 | 1020 | C#CCN(C)C(=O)OC[C@@H]1CC[C@]2(COc3nc(N4C[C@H]5CC[C@@H](C4)N5)c4cnc(-c5cc(O)cc6ccc(F)c(C#C)c56)c(F)c4n3)CCCN12 | – |
| 1.1 | 3020 | 3.9 | 944 | [2H]C([2H])(Oc1nc(N2C[C@H]3CC[C@@H](C2)N3)c2cnc(-c3cc(O)cc4ccc(F)c(C#C)c34)c(F)c2n1)C12CC(=C)CN1CC1(CC1)C2 (some centres not stated) | – |
| > 50 | > 5000 | > 50 | > 5000 | C#Cc1c(F)ccc2cc(O)cc(-c3ncc4c(N5C[C@H]6CC[C@@H](C5)N6)nc(OCCn5cc(COCC67CCCN6CC(=C)C7)nn5)nc4c3F)c12 (some centres not stated) | – |

| SMILES | IC50 (AGS; Homo sapiens, AGS, 120 h) [nM] | IC50 (NCI-H1299) [nM] | IC50 (ASPC1; Homo sapiens, ASPC1, 120 h) [nM] | IC50 (A549; Homo sapiens, A549, 120 h) [nM] | also measured |
| --- | --- | --- | --- | --- | --- |
| [2H]C([2H])(Oc1nc(N2C[C@H]3CC[C@@H](C2)N3)c2cnc(-c3cc(O)cc4ccc(F)c(C#C)c34)c(F)c2n1)C12CC(=C)CN1CC(=C)C2 | 0.4 | 2010 | 1.3 | 559 | – |
| [2H]C([2H])(Oc1nc(N2C[C@H]3CC[C@@H](C2)N3)c2cnc(-c3cc(O)cc4ccc(F)c(C#C)c34)c(F)c2n1)C12CC(=C)CN1C[C@H](F)C2 (some centres not stated) | 0.8 | > 5000 | 1.6 | 2160 | – |
| [2H]C(Oc1nc(N2C[C@H]3CC[C@@H](C2)N3)c2cnc(-c3cc(O)cc4ccc(F)c(C#C)c34)c(F)c2n1)C12CCCN1CC(=C)C2 (some centres not stated) | 1.3 | > 5000 | 2.1 | 731 | – |
| [2H]C1([2H])CCC2(C([2H])([2H])Oc3nc(N4C[C@H]5CC[C@@H](C4)N5)c4cnc(-c5cc(O)cc6ccc(F)c(C#C)c56)c(F)c4n3)CC(=C)CN12 (some centres not stated) | 0.8 | > 5000 | 2 | 1680 | – |
| [2H]C([2H])(Oc1nc(N2C[C@H]3CC[C@@H](C2)N3)c2cnc(-c3cc(O)cc4ccc(F)c(C#C)c34)c(F)c2n1)C12CCCN1CC(=C)C2 (some centres not stated) | 1.1 | > 5000 | 3.8 | 948 | – |
| C#Cc1c(F)ccc2cc(O)cc(-c3ncc4c(N5C[C@H]6CC[C@@H](C5)N6)nc(OCC56CCCN5CC(=C)C6)nc4c3F)c12 (some centres not stated) | 1.4 | > 5000 | 4.6 | 2220 | – |

From ChEMBL document CHEMBL5390265, “Design, Synthesis, and Pharmacological Evaluation of Multisubstituted Pyrido[4,3-d]pyrimidine Analogues Bearing Deuterated Methylene Linkers as Potent KRASG12D Inhibitors” (J Med Chem, 2023)
